Test results from patent publication US20070202166A1, “Method for increasing the rate and consistency of bioavailability of supplemental dietary ingredients” (priority 2006, published 2007).
“Also recorded” adds a separate entry of the source.

Assays:
Type in all cases: physicochemical
[1] = Kinetic dissolution experiment: 1 g in 50 mL water, filtered at 1 and 5 minutes
Procedure: In order to expand on the results of the aforenoted experiments, a kinetic experiment was conducted to examine the change in the dissolution rate over short time periods.
1 g of sample was added to 50 mL water in a flask with a magnetic stir bar on a stirrer set at constant speed. Separate samples were filtered at 1 and 5 minutes. The pre-weighed filter papers (Whateman 41, particle retention 20-25 μm) were allowed to dry and the amount of sample remaining on the filter paper was determined.

[2] = Solubility test: powder added to stirred water until saturated, gravity filtered, dry residue on filter paper weighed; settings: Whatman 41 filter paper, particle retention 20-25 μm
Procedure: In order to test the capacity of fine-milling to improve the rate bioavailability of substances, a simple test was performed. The test was conceived to mimic various elements involved in the processes of oral administration of a nutritional supplement. The key parameters involved were rate of dissolution and solubility, as it is understood that an ingested nutrient must be dissolved or reduced to a bio-transportable size in order to be utilized biochemically by the body.
The rates of dissolution and solubility of regular common nutritional supplements were compared to fine-milled versions within a fixed time. […] 100 mL of water was added to a 250 mL beaker and a magnetic stirring bar was placed in the beaker. The beaker was placed on a magnetic stirrer and stirred with low speed. 1 g of a given supplemental dietary ingredient powder was added incrementally to the beaker with the stirring speed constant until the solution visually appeared saturated. The solution was filtered by gravity through a pre-weighed filter paper (Whatman 41, particle retention 20-25 μm). […]
The ‘Fold Change’ represents the change in the amount of substance unable to pass through the filter as calculated by the amount of unfiltered regular substance divided by the amount of unfiltered fine-milled substance and represents the potential theoretical improvement in bioavailability.

[3] = Time to dissolve in stirred water, estimated by visual inspection; settings: for Time taken to dissolve: 100 mL water, constant stirring
Procedure: In order to determine the effect of fine-milling on the dissolution rate, initial testing was performed to examine the rate of dissolution of common supplemental dietary ingredients. For the purposes of this disclosure, the term “regular” as used herein makes reference to non-fine-milled particles. 100 mL of water was placed into a 250 mL beaker and a magnetic stirrer bar was added to the beaker. The beaker was then placed on a magnetic stirrer was set to constant speed. […] The time required to dissolve was estimated by visual inspection. Equal amounts of the fine-milled ingredients were then added to the water and the time required to dissolve was estimated by visual inspection.

In the case of `CN(CC(=O)O)C(=N)N.O` [Creatine Monohydrate], the “weight of unfiltered sample” value ([1]; Fine-milled, 1-minute interval, Monohydrate) is reported as 0.33 g, the “weight of unfiltered sample” value ([1]; Fine-milled, 1-minute interval, listed as creatine, Monohydrate) is reported as 0.32 g and the “weight of unfiltered sample” value ([1]; Fine-milled, 5-minute interval) is reported as 0.27 g. The “weight of unfiltered sample” value ([1]; Regular, 1-minute interval, listed as Creatine monohydrate, Monohydrate) was 0.32 g, the “weight of unfiltered sample” value ([1]; Regular, 1-minute interval, listed as creatine, Monohydrate) was 0.33 g and the “weight of unfiltered sample” value ([1]; Regular, 5-minute interval) was 0.40 g. The “Dry Powder On Filter” value ([2]; Fine-milled powder) was 0.01 g, the “Dry Powder On Filter” value ([2]; Regular powder) was 0.19 g and the “Time taken to dissolve” value ([3]; Fine-milled powder, same amount as regular) was under 5 min. The “Rate of dissolving, fine-milled compared with regular (in words)” value ([3]; Monohydrate) was “appeared to dissolved at the same rate in both the fine-milled and regular formats; also recorded: did not display a difference dependent on particle size” and the “Time taken to dissolve” value ([3]; Regular (non-milled) powder) was under 5 min.
